Data: patent publication US20240376085A1 (Janssen Pharmaceutica NV, priority 2021, published 2024)

How the values were obtained:
IL-17A : IL-17RA binding [1] = target: T1, IL-17A : IL-17RA binding (Homo sapiens, UniProt Q16552, K93Q); test: IL-17A(FLAG-tagged):IL-17RA(His-tagged) binding disruption Eu-HTRF assay, Protocol 2; conditions: FLAG-IL-17A 1 nM at 2x final concentration; average if tested more than once
T1 construct: Name: IL-17A-Flag
Text: An antibody directed against the FLAG tag of IL-17A (SEQ ID NO: 1) is labeled with the HTRF donor chromophore (Europium-cryptate). IL-17A is present as a dimer that is “locked into” this quaternary structure due to the formation of loop-spanning […] disulfide bridges. The construct of IL-17RA used in the assay excludes the […] portion of the receptor and is fused to a C-terminal 10×His tag (SEQ ID NO:2). An antibody directed against the His tag of the IL-17RA chimera is labeled with the HTRF acceptor chromophore (“D2”). The fluorescence-resonance energy transfer (FRET) depends on the vicinity of the donor chromophore to the acceptor, and interruption of the binding between the IL-17A and IL-17RA causes the reduction/loss of FRET. Therefore, this assay allows to evaluate the compound effect on the binding IL-17A and IL-17RA by monitoring the fluorescence intensity of donor vs acceptor. The assay was run using either Protocol 1 or Protocol 2 as described below.
Protocol 2. 40 nl of 2-fold serial diluted compound solution for total 22 dilution points is added into each well of a 1536-well, white, low-volume, non-binding plate (Greiner #782904), then 2 μl of FLAG tagged IL-17A at 2× final concentration (1 nM) in solution of PBS+0.01% Triton-X100 is added to each well. The assay plate is briefly centrifuged then incubated for 1 h at rt. A mixed solution is prepared containing 2×5 nM 10HIS×IL-17RA, 2×2.5 nM Eu-anti-FLAG (CISBIO), 2×5 nM D2-anti-HIS (CISBIO) in PBS+0.01% Triton-X100+200 mM Potassium Fluoride (Sigma 60238) and 2 μl of mix is added to each well of the assay plate. The plate is briefly centrifuged then incubated for 2 h at rt. The HTRF intensities at the wavelength of donor (615 nm) and acceptor (665 nm) are measured using BMG Pherastar. The ratio between intensities at two wavelengths is calculated and plotted against the compound concentration and the data is fitted to a one-site competition model to yield IC50 of the compound.

[2] = test system: IL-17A-induced G-CSF production in human normal keratinocyte (NHK); test: NHK assay: IL-17A-induced G-CSF production in normal human keratinocytes; assay type: cell-based; conditions: 24 h, IL-17A 5 ng/mL, average if tested more than once
In short: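 Compound titrations are first mixed with recombinant human IL-17A for 1 h at room temperature. The mixture goes onto adult normal human keratinocytes (final IL-17A 5 ng/mL, 5% FBS, 0.2% DMSO) for 24 h at 37 °C. Secreted G-CSF is then measured by HTRF and IC50 fitted.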

IL-17A : IL-17RA binding [3] = target: T1, IL-17A : IL-17RA binding; test: IL-17A(FLAG-tagged):IL-17RA(His-tagged) binding disruption Eu-HTRF assay, Protocol 1; conditions: FLAG-IL-17A 2.5 nM at 2x final concentration; average if tested more than once
In short: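 IC50 came from a one-site competition fit of the acceptor/donor (665/620 nm) HTRF ratio. His-tagged IL-17RA, Eu-anti-FLAG and D2-anti-His were added after a 1 h rt compound preincubation with FLAG-tagged IL-17A dimer in PBS/0.01% Triton X-100, followed by 2 h at rt before reading.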

T1 sequence (Q16552 with tags, fused parts or gaps K93Q): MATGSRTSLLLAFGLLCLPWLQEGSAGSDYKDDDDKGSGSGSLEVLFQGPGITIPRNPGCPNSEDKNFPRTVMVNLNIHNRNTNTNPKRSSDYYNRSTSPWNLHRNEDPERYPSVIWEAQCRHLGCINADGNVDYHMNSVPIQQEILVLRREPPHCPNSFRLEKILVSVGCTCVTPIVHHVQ

Row | SMILES | IC50 (IL-17A : IL-17RA binding [1]) | IC50 (IL-17A : IL-17RA binding [3]) | IC50 ([2]; Homo sapiens, Keratinocyte) | IC50 [2]
1 | CC(C)n1nccc1C(=O)N[C@H](c1nc2ccc([C@@H](C)NC(=O)CCC(F)(F)F)cc2[nH]1)C1CCC(F)(F)CC1 [Example 122, N—((S)-(4,4-Difluorocyclohexyl)(6-((R)-1-(4,4,4-trifluorobutanamido)ethyl)-1H-benzo[d]imidazol-2-yl)methyl)-1-isopropyl-1H-pyrazole-5-carboxamide] | > 100 nM | > 100 nM | < 50 nM | –
2 | CC(C)n1nccc1C(=O)N[C@H](c1nc2cc([C@@H](COC3CC3)NC(=O)CC3CC(F)(F)C3)ccc2[nH]1)[C@@H](C)O[C@@H](C)C(F)(F)F [Example 273, N-((1R,2R)-1-(5-((S)-2-Cyclopropoxy-1-(2-(3,3-difluorocyclobutyl)acetamido)ethyl)-1H-benzo[d]imidazol-2-yl)-2-(((S)-1,1,1-trifluoropropan-2-yl)oxy)propyl)-1-isopropyl-1H-pyrazole-5-carboxamide] | > 100 nM | – | < 50 nM | –
3 | Cc1nonc1C(=O)N[C@H](c1nc2cc([C@@H](COC3CC3)NC(=O)C[C@H]3CC3(F)F)ccc2[nH]1)[C@@H](C)O[C@H](C)C(F)(F)F [Example 275, N-((1R,2R)-1-(5-((S)-2-Cyclopropoxy-1-(2-((S)-2,2-difluorocyclopropyl)acetamido)ethyl)-1H-benzo[d]imidazol-2-yl)-2-(((R)-1,1,1-trifluoropropan-2-yl)oxy)propyl)-4-methyl-1,2,5-oxadiazole-3-carboxamide] | 50 to 100 nM | – | 50 to 100 nM | –

Further lines, with some results ahead:

Row | IC50 (IL-17A : IL-17RA binding [1]) | IC50 (IL-17A : IL-17RA binding [3]) | SMILES | IC50 ([2]; Homo sapiens, Keratinocyte) | IC50 [2]
4 | 50 to 100 nM | < 50 nM | Cc1nonc1C(=O)N[C@@H](CO[C@@H](C)C(F)(F)F)c1nc2ccc([C@H](NC(=O)CC3CC(F)(F)C3)C3CC3)cc2[nH]1 (relative stereo) [Example 151, N—((R*)-1-(6-((R)-Cyclopropyl(2-(3,3-difluorocyclobutyl)acetamido)methyl)-1H-benzo[d]imidazol-2-yl)-2-(((S*)-1,1,1-trifluoropropan-2-yl)oxy)ethyl)-4-methyl-1,2,5-oxadiazole-3-carboxamide] | > 100 nM | –
5 | < 50 nM | < 50 nM | COC[C@H](NC(=O)CC1CC(F)(F)C1)c1ccc2nc([C@H](COC(C)(C)C(F)(F)F)NC(=O)c3nonc3C3CC3)[nH]c2c1 (relative stereo) [Example 164, 4-Cyclopropyl-N—((R)-1-(5-((R*)-1-(2-(3,3-difluorocyclobutyl)acetamido)-2-methoxyethyl)-1H-benzo[d]imidazol-2-yl)-2-((1,1,1-trifluoro-2-methylpropan-2-yl)oxy)ethyl)-1,2,5-oxadiazole-3-carboxamide] | < 50 nM | –
6 | < 50 nM | < 50 nM | C[C@@H](NC(=O)CC1CC(F)(F)C1)c1ccc2nc(C(COC(C)(C)C(F)(F)F)NC(=O)c3nonc3C3CC3)[nH]c2c1 (single isomer, unassigned) [Example 152, 4-Cyclopropyl-N—((R*)-1-(6-((R)-1-(2-(3,3-difluorocyclobutyl)acetamido)ethyl)-1H-benzo[d]imidazol-2-yl)-2-((1,1,1-trifluoro-2-methylpropan-2-yl)oxy)ethyl)-1,2,5-oxadiazole-3-carboxamide] | < 50 nM | –
7 | 50 to 100 nM | – | Cc1nonc1C(=O)N[C@H](c1nc2cc([C@@H](COC3CC3)NC(=O)CC3CC(F)(F)C3)ccc2[nH]1)[C@@H](C)O[C@@H](C)C(F)(F)F [Example 274, N-((1R,2R)-1-(5-((S)-2-Cyclopropoxy-1-(2-(3,3-difluorocyclobutyl)acetamido)ethyl)-1H-benzo[d]imidazol-2-yl)-2-(((S)-1,1,1-trifluoropropan-2-yl)oxy)propyl)-4-methyl-1,2,5-oxadiazole-3-carboxamide] | – | 50 to 100 nM
8 | 50 to 100 nM | – | C[C@@H](OC1CC1)[C@H](NC(=O)c1nonc1C1CC1)c1nc2cc([C@@H](COC3CC3)NC(=O)CC3CC(F)(F)C3)ccc2[nH]1 [Example 276, N-((1R,2R)-2-Cyclopropoxy-1-(5-((S)-2-cyclopropoxy-1-(2-(3,3-difluorocyclobutyl)acetamido)ethyl)-1H-benzo[d]imidazol-2-yl)propyl)-4-cyclopropyl-1,2,5-oxadiazole-3-carboxamide] | < 50 nM | –
